“Also recorded” adds a separate entry of the source.
Tests used:
[1] = NMR titration repeated with acetylated peptide; assay type: binding; conditions: same conditions as for NH2-Ala-Ala-Phe-amide; N-terminus acetylated
Procedure: The concept is based on the observation that 18-crown-6 ether derivatives can associate with protonated amines such as amino groups present at the N-termini of peptides or proteins (Yeh et al 2009 J Am Soc Mass Spectrom 20:385-393). To determine the exchange rate of the interaction between N-termini of polypeptides and 18-crown-6 ethers, an NMR study was performed. A model peptide (NH2-Ala-Ala-Phe-amide) was used in combination with the 18-crown-6 analogue triaza-trioxo-crown ether (TTC-ether; FIG. 3). The model peptide was designed with an N-terminal Ala to easily determine the shift of the N-terminal Ala methyl group upon binding to the TTC-ether. Solutions of the peptide were prepared in D2O/D-acetonitrile (3 ml/1 ml) with 10 mM D-acetic acid. A concentration of 100 μM peptide was maintained and mixed with varying concentrations of the TTC-ether. […]
A 2D-TOCSY (Total Correlation Spectroscopy) spectrum allows the identification of the position of the two methyl groups of both Ala residues around 1.25 ppm and 1.43 ppm. […] In order to retrieve information about the binding of the crown ether with the peptide, a titration was performed with different concentrations of the TTC-ether after which the shifts for the Ala methyl groups was measured at high resolution. Indeed, Ala-methyl shifts were observed when different TTC-ether/peptide ratios are measured (FIG. 4A). […]

[2] = test system: peptide array [AA1][AA2]GGNNGG; assay: Crown ether binding on PEPperPRINT peptide array (fluorescence intensity); conditions: crown ether 0.1 μg/μl in 0.1% triethanolamine in 50% ACN
Procedure: To study the binding of crown ethers to different peptides, a peptide array is used (PEPperPRINT array), containing an array of 400 peptides comprising peptides with all amino acid combinations at the first and second N-terminal position ([AA1][AA2]GGNNGG; four replicates of each peptide). After applying a fluorescently labeled crown ether (Cy5.5-dibenzo-18-crown-6), the relative affinity for all peptide substrates is determined by the fluorescence intensity on each peptide spot. The crown ether was applied on the peptide array at a concentration of 0.1 μg/μl in 0.1% triethanolamine in 50% ACN. After binding the array was washed two times for 10 sec using the same buffer. Finally, the fluorescence intensity was measured using a LI-COR Odyssey Imaging system. […] The large hydrophobic side chains of the second amino acid likely interact with the hydrophobic regions of the crown ether (crown ether benzene rings and/or cy5.5 fluorophore).

| Substance | interaction with TTC-ether (NMR shifts) [1] | relative binding (fluorescence intensity), variable second amino acid ([2]; peptides with N-terminal glycine) | relative binding (fluorescence intensity), variable N-terminal amino acid ([2]; peptides with leucine at the second position) |
| --- | --- | --- | --- |
| Acetyl-Ala-Ala-Phe-amide | did not measure any noticeable interaction | – | – |
| Cy5.5-dibenzo-18-crown-6 | – | strongest on the peptides GFGGNNGG, GLGGNNGG, GYGGNNGG, GIGGNNGG, GKGGNNGG and GWGGNNGG | strongest on N-terminal glycine; also recorded: weakest on N-terminal proline |

From patent publication US20220214354A1, “MEANS AND METHODS FOR SINGLE MOLECULE PEPTIDE SEQUENCING” (VIB VZW, priority 2019, published 2022)
